The subject of one data set is HLA supertype alleles. It is filed as binding, human.
The next data set has as its system HLA transgenic mice. Put plainly: CTL priming in HLA transgenic mice after DNA immunization (in situ IFNγ ELISA or chromium release). (In an ELISA, binding on a coated surface is turned into a signal by an enzyme label.)
Another data set has as its system HLA-A2 transgenic mice. In words: IFN-γ ELISPOT CTL responses after DNA immunization. In kind it is in vivo, mouse. To be noted: mice immunized with GCR-5835.
The next data set relates to H2^bxd mice. In words: CTL response after peptide/IFA immunization, in situ ELISA. It is filed as in vivo, mouse. To be noted: peptide/IFA immunization of H2^bxd mice.
In data set [1] the test system is PBL from individuals with acute or chronic HBV infection. The following applies: independently reported (Sobao et al. 2001); cited from earlier work.
A further data set has as its target HLA-A*0101 (Homo sapiens, UniProt P04439, A114D/A174V/A182V/D101N/D185E/E176A/E190D/L180R/Q94H/R68K/S129P/T187R/V100A/V91M/W191G). Put plainly: HLA class I peptide binding assay (purified HLA, IC50).
[2] abbreviates: A2, A3 or B7 supertype, five most common members.
Where [3] appears, read: A1 or A24 supertype, three related alleles.

Where two headings read alike, the source gives them in different places. Ends that are not written are not given here.

Turning to `CC[C@H](C)[C@H](NC(=O)[C@@H](NC(=O)[C@H](CC(C)C)NC(=O)[C@@H](NC(=O)[C@H](CCCNC(=N)N)NC(=O)[C@@H](NC(=O)[C@H](CC(C)C)NC(=O)[C@H](CC(C)C)NC(=O)[C@@H](N)Cc1ccccc1)[C@@H](C)O)[C@@H](C)CC)[C@@H](C)O)C(=O)O` [env 183], the “XRN (number of supertype alleles bound ≦500 nM)” value in the data set with HLA supertype alleles (setting [2]) amounted to 4. The “Immunogenicity of the epitope in construct HBV30C” value in the data set on HLA transgenic mice (mouse, in vivo) is recorded as “poorly immunogenic”.

On to `CC(C)C[C@H](NC(=O)[C@H](CO)NC(=O)[C@H](CC(C)C)NC(=O)[C@@H](N)Cc1c[nH]c2ccccc12)C(=O)N[C@@H](CC(C)C)C(=O)N[C@H](C(=O)N1CCC[C@H]1C(=O)N[C@@H](Cc1ccccc1)C(=O)N[C@H](C(=O)O)C(C)C)C(C)C` [env 335], for which the “XRN (number of supertype alleles bound ≦500 nM)” value with HLA supertype alleles (setting [2]) worked out at 4. For the same molecule, the “Primary ELISPOT response” value in the data set on HLA-A2 transgenic mice is listed as “approximately 100 SFC/10^6 CD8+ cells”.

With `CC(C)C[C@H](NC(=O)[C@H](CC(C)C)NC(=O)[C@H](Cc1c[nH]c2ccccc12)NC(=O)[C@@H]1CCCN1C(=O)[C@H](Cc1ccccc1)NC(=O)[C@H](CO)NC(=O)[C@@H](NC(=O)[C@H](Cc1ccc(O)cc1)NC(=O)[C@@H](N)CCCCN)[C@@H](C)O)C(=O)O` [pol 745], the “Murine Immunogenicity (SU)” value in the data set with H2^bxd mice is listed as 158.7 SU. Further, in data set [1], the “Recognition by CTL from HBV-infected individuals” value is on record as “recognized by CTL from HBV-infected individuals”.

With H-YSLNFMGY-OH [pol 580], the IC50 (usually the concentration that inhibits the measured activity by half) at HLA-A*0101 came out at 382 nM. Besides, the “XRN (number of supertype alleles bound ≦500 nM)” value with HLA supertype alleles (setting [3]) is 3.

On to LTFGRETVLEY [core 137], for which the IC50 at HLA-A*0101 is 80 nM. In addition, the “XRN (number of supertype alleles bound ≦500 nM)” value in the data set with HLA supertype alleles (setting [3]) was 3.

B1: HBV30K: lead 30 epitope HBV CTL vaccine epigene construct, SEQ ID NO: 71/72 (nucleic acid)
DNA: ATGGGAATGCAGGTGCAAATACAGTCTCTCTTCCTTTTGCTTCTCTGGGTTCCAGGATCACGGGGCTTCTTGCTTAGCTTGGGCATCCACCTAAATGCTGCTGCAAAATACACATCTTTTCCTTGGCTCCTTAATGCCGCCGCTAGGTTTTCATGGCTGAGTCTGCTAGTACCTTTCAATGCGGCTTTCCCACATTGCCTAGCTTTTAGCTATATGAAAGCTGCTTTAGTCGTGGACTTTTCACAGTTTAGCAGAGGAGCAATCCTGCTGCTATGTCTGATATTCCTTCTAAACGCAGCAGCCCACACACTCTGGAAAGCTGGTATCCTTTACAAGAAAGCCTGGATGATGTGGTATTGGGGACCCAGCCTCTACAAAGCATACCCTGCCCTGATGCCACTATACGCATGCATTGGCGCGGCAGCCTGGTTATCCCTTTTAGTACCGTTTGTCAACGCCGCAGCGGGATTTCTATTAACCAGAATCCTGACGATTAATGCTGCCGCCATTCCGATCCCAAGTTCCTGGGCATTCAAAGCAGCCGCGGAGTATCTGGTTTCATTTGGCGTATGGAACCTGCCAAGCGACTTCTTTCCTTCTGTTAAGGCCGCTGCTTTCCTCCCCTCCGATTTCTTTCCATCGGTGAAAGCCGCTGCCGACCTCCTTGATACCGCGAGCGCTCTGTACAACTCGTGGCCAAAATTCGCAGTTCCAAACCTAAAAGCCGCCGCCAGTGCCATTTGTTCCGTGGTAAGGAGAAAATTATCACTCGACGTGTCCGCAGCATTTTATAACGCTGCTGCAAAGTTTGTCGCAGCATGGACATTGAAGGCTGCAGCGAAAGCAGCAAATGTATCAATACCCTGGACCCACAAGGGTGCAGCCGGGCTGTCTAGGTATGTGGCGAGGCTAAACGCCGCCGCCTCAACACTGCCTGAGACTACTGTCGTGAGACGCAAACACCCTGCCGCAATGCCCCACCTGCTGAAAGCAGCCGCACGATGGATGTGCCTCAGAAGATTCATAATAAACGCTTCTTTCTGTGGGTCACCCTACAAAGCCGCTTACATGGACGATGTGGTCCTCGGAGTGAATGCCCTCTGGTTCCATATCAGCTGCCTGACATTCAAGGCAGCCGCCACCCCCGCTCGTGTGACAGGAGGTGTCTTCAAAGCCGCGGCACTGACTTTCGGTCGGGAAACTGTATTGGAATATAAGCAGGCCTTCACATTCTCCCCAACATACAAGTGA
modifications: Hepatitis B Virus
In the case of B1, the “CTL responses induced by the construct (in words)” value in the data set on HLA transgenic mice (HLA transgenic mice (HLA-A2, -A3/A11; H2^bxd for A24)) is on record as “CTL responses as vigorous as HBV2”.

The record behind these values is patent US7507803B2, “Optimized multi-epitope constructs and uses thereof” (priority 2002, dated 2009).
